Assay: wn = mass fraction of the nth substance listed
Details: Gas, Burnett expansion method

F/C=C/C(F)(F)F [trans-1,3,3,3-tetrafluoropropene] + CC(C)C
Details | mass density [kg/m3]
325.1 K, 523.6 kPa, w1 = 0.85 | 21.624
325.1 K, 621.5 kPa, w1 = 0.75 | 24.3306
325.1 K, 668.2 kPa, w1 = 0.85 | 28.6964
325.1 K, 786.7 kPa, w1 = 0.75 | 32.2887
325.1 K, 844.6 kPa, w1 = 0.85 | 38.0818
325.11 K, 166.4 kPa, w1 = 0.7 | 5.6568
325.11 K, 167.1 kPa, w1 = 0.75 | 5.9115
325.11 K, 218.6 kPa, w1 = 0.7 | 7.5069
325.11 K, 237.8 kPa, w1 = 0.85 | 9.2525
325.11 K, 286.7 kPa, w1 = 0.7 | 9.9621
325.11 K, 373.4 kPa, w1 = 0.7 | 13.2204
325.11 K, 483.2 kPa, w1 = 0.7 | 17.5443
325.11 K, 617.3 kPa, w1 = 0.7 | 23.2823
325.13 K, 167.9 kPa, w1 = 0.65 | 5.518
325.13 K, 220.6 kPa, w1 = 0.65 | 7.3227
325.13 K, 289.1 kPa, w1 = 0.65 | 9.7176
325.13 K, 377.5 kPa, w1 = 0.65 | 12.8959
325.13 K, 484.7 kPa, w1 = 0.65 | 17.1136
325.13 K, 619.9 kPa, w1 = 0.65 | 22.7108
325.17 K, 238.4 kPa, w1 = 0.8 | 8.8968
325.17 K, 312.1 kPa, w1 = 0.8 | 11.8066
325.17 K, 407 kPa, w1 = 0.8 | 15.6681
325.17 K, 526.5 kPa, w1 = 0.8 | 20.7926
325.17 K, 669 kPa, w1 = 0.8 | 27.593
325.17 K, 846.3 kPa, w1 = 0.8 | 36.6175
325.18 K, 181.5 kPa, w1 = 0.8 | 6.704
325.18 K, 192.3 kPa, w1 = 0.9 | 7.7424
325.18 K, 252.4 kPa, w1 = 0.9 | 10.2747
325.18 K, 330.4 kPa, w1 = 0.9 | 13.6351
325.18 K, 430.4 kPa, w1 = 0.9 | 18.0945
325.18 K, 549.6 kPa, w1 = 0.9 | 24.0125
325.18 K, 703.2 kPa, w1 = 0.9 | 31.8661
330.12 K, 156.9 kPa, w1 = 0.75 | 5.446
330.12 K, 205.5 kPa, w1 = 0.75 | 7.2271
330.12 K, 271 kPa, w1 = 0.75 | 9.5908
330.12 K, 354.5 kPa, w1 = 0.75 | 12.7274
330.12 K, 457.3 kPa, w1 = 0.75 | 16.8904
330.12 K, 588.2 kPa, w1 = 0.75 | 22.4145
330.12 K, 750 kPa, w1 = 0.75 | 29.7454
330.12 K, 945.5 kPa, w1 = 0.75 | 39.4741
330.12 K, 981.5 kPa, w1 = 0.85 | 44.7652
330.13 K, 163.7 kPa, w1 = 0.85 | 6.1759
330.13 K, 215.1 kPa, w1 = 0.85 | 8.1958
330.13 K, 282.7 kPa, w1 = 0.85 | 10.876
330.13 K, 369.7 kPa, w1 = 0.85 | 14.4335
330.13 K, 612.7 kPa, w1 = 0.85 | 25.4187
330.13 K, 779.3 kPa, w1 = 0.85 | 33.7323
330.14 K, 476.1 kPa, w1 = 0.85 | 19.1537
330.2 K, 440.7 kPa, w1 = 0.7 | 15.4891
330.2 K, 559.7 kPa, w1 = 0.7 | 20.5552
330.2 K, 717.8 kPa, w1 = 0.7 | 27.2782
330.21 K, 338.1 kPa, w1 = 0.7 | 11.6715
330.21 K, 929.7 kPa, w1 = 0.9 | 43.8273
330.22 K, 153.7 kPa, w1 = 0.9 | 6.0465
330.22 K, 202.2 kPa, w1 = 0.9 | 8.024
330.22 K, 258.3 kPa, w1 = 0.7 | 8.7948
330.22 K, 265.5 kPa, w1 = 0.9 | 10.6483
330.22 K, 347.5 kPa, w1 = 0.9 | 14.131
330.22 K, 452.8 kPa, w1 = 0.9 | 18.7526
330.22 K, 576.5 kPa, w1 = 0.9 | 24.8861
330.22 K, 735.5 kPa, w1 = 0.9 | 33.0255
330.23 K, 145.4 kPa, w1 = 0.65 | 4.6896
330.23 K, 149.5 kPa, w1 = 0.7 | 4.9937
330.23 K, 192.1 kPa, w1 = 0.65 | 6.2233
330.23 K, 252.5 kPa, w1 = 0.65 | 8.2587
330.23 K, 272.1 kPa, w1 = 0.8 | 10.0277
330.23 K, 354.3 kPa, w1 = 0.8 | 13.3074
330.23 K, 463.4 kPa, w1 = 0.8 | 17.6597
330.23 K, 754.4 kPa, w1 = 0.8 | 31.1003
330.23 K, 951.7 kPa, w1 = 0.8 | 41.2719
330.24 K, 157.7 kPa, w1 = 0.8 | 5.6939
330.24 K, 196.7 kPa, w1 = 0.7 | 6.6269
330.24 K, 207.3 kPa, w1 = 0.8 | 7.5562
330.24 K, 330.6 kPa, w1 = 0.65 | 10.9596
330.24 K, 431.5 kPa, w1 = 0.65 | 14.544
330.24 K, 590.5 kPa, w1 = 0.8 | 23.435
330.24 K, 702.3 kPa, w1 = 0.65 | 25.6134
330.25 K, 548.5 kPa, w1 = 0.65 | 19.3004
